Data published in patent US10202420B2, “Methods and compositions for treatment of cartilage and disc tissue pathologies” (THE ROYAL INSTITUTION FOR ADVANCEMENT OF LEARNING/MCGILL …, priority 2013, dated 2019).
Where no end group is shown, it is not given here.

Legend:
[1] = LIVE/DEAD cell viability in alginate beads; format: cell-based; details: bovine, bovine intervertebral disc NP and AF cells in alginate beads, 1 μg/ml, 18 days, alginate scaffolds, read-out: cellular viability
Protocol: Coccygeal IVDs from healthy 20-24 month old steers were obtained from a local abattoir at 2-3 hours after slaughter. The IVDs were separated from their adjacent vertebral bodies, and the cells were isolated from the NP and AF regions by sequential digestion with 0.2% Pronase followed by 0.125% Collagenase digestion as previously described. After isolation, the NP and AF cells were either immediately embedded in alginate beads or were plated in 6 well plates for protein extraction.
After isolation the NP and AF cells were resuspended in 1.2% alginate (dissolved in 0.15 M NaCl) at a concentration of 2 million cells per ml. Alginate was chosen to assess the effect on matrix production in the absence of extensive cell proliferation. Droplets of cell suspension were released through an 18-gauge needle into 102 mM calcium chloride solution and were let to polymerize for 10 minutes. Alginate beads were subsequently stabilized for 7 days in culture media (Dulbecco's Modified Eagle Medium high glucose supplemented with 10% fetal bovine serum and antibiotics). […]
Cell viability was assessed at day 18 on the alginate beads using a live/dead fluorescence assay (Live/Dead®, Invitrogen) and visualized by fluorescent microscopy.

[2] = cited from earlier work
[3] = molecular target: T1, MMP 7 (Homo sapiens, UniProt P09237); test: Proteinase treatment of Link N, peak area by mass spectrometry; format: in vitro ADME; details: 30 minutes, 2 and 24 hours
T1 construct: purchased R&D Systems
Protocol: (§1) 300 μg Link N 1-16 was incubated for 30 minutes, 2 and 24 hours in the presence of 10 different proteinases. The buffer used for MMPs 3, 7, 12, 13, ADAMTS 4,5, HTRA1 was composed of 50 mM Tris-HCl, 200 mM NaCl, 5 mM CaCl2, 0.01% Rapigest. For cathepsins K, B, and L, the digest buffer was composed of 2.5 mM DTT, 0.15% chondroitin sulfate A, 0.1 M sodium acetate, pH 5.5.
(§2) 25 μL medium samples, collected from the monolayer cultures described above or peptide digests were purified on C18 spin columns according to standard protocols (Harvard Apparatus, Holliston, Mass.). Eluted peptides were reconstituted in 20 μL, 2% acetonitrile and 0.2% formic acid (FA). Samples were injected and quantified using a triple quadropole mass spectrometer TSQ Vantage™ (Thermo Scientific, Waltham, Mass.) equipped with an easy nano-LC system (Thermo Scientific). The mass spectrometer was operated in SRM mode, with both Q1 and Q3 settings at unit resolution (FWHM 0.7 Da). A spray voltage of +1,700 V was used with a heated ion transfer setting of 270° C. for desolvation. Data were acquired using the Xcalibur software (version 2.1). Mobile phases used were A (0.1% FA in water) and B (100% acetonitrile in 0.1% FA). Separation was performed on 10 μm tip, 75 μm×15 cm capillary columns (PicoTip™ emitter, New Objective, Woburn, Mass.) packed with Reprosil-Pur C18-AQ resin (3 μm, Dr. Maich GmbH, Switzerland). 1 μL sample was injected and separation was performed at a flow rate of 300 nL/min using a gradient of 97% mobile phase A for 5 min, 85% A for 8 min, 65% A for 42 min, and 19% A for 45-50 min.

[4] = molecular target: cathepsin L (Homo sapiens, UniProt P07711); test: as above; format: in vitro ADME; details: 30 minutes, 2 and 24 hours
Protocol: as §1, §2

[5] = molecular target: T2, ADAMTS 5 (Homo sapiens, UniProt Q9UNA0); test: as above; format: in vitro ADME; details: 30 minutes, 2 and 24 hours
T2 construct: purchased R&D Systems
Protocol: as §1, §2

[6] = molecular target: T3, MMP 12 (Homo sapiens, UniProt P39900); test: as above; format: in vitro ADME; details: 30 minutes, 2 and 24 hours
T3 construct: purchased R&D Systems
Protocol: as §1, §2

[7] = molecular target: T4, ADAMTS 4 (Homo sapiens, UniProt O75173); test: as above; format: in vitro ADME; details: 30 minutes, 2 and 24 hours
T4 construct: purchased R&D Systems
Protocol: as §1, §2

[8] = molecular target: T5, MMP 13 (Homo sapiens, UniProt P45452); test: as above; format: in vitro ADME; details: 30 minutes, 2 and 24 hours
T5 construct: purchased R&D Systems
Protocol: as §1, §2

[9] = molecular target: T6, MMP 3 (Homo sapiens, UniProt P08254); test: as above; format: in vitro ADME; details: 30 minutes, 2 and 24 hours
T6 construct: purchased R&D Systems
Protocol: as §1, §2

[10] = molecular target: T7, HTRA1 (Homo sapiens, UniProt Q92743); test: as above; format: in vitro ADME; details: 30 minutes, 2 and 24 hours
T7 construct: purchased Thermo Scientific
Protocol: as §1, §2

[11] = molecular target: cathepsin B (Homo sapiens, UniProt P07858); test: as above; format: in vitro ADME; details: 30 minutes, 2 and 24 hours
Protocol: as §1, §2

[12] = molecular target: T8, cathepsin K (Homo sapiens, UniProt P43235); test: as above; format: in vitro ADME
T8 sequence (P43235 115-329): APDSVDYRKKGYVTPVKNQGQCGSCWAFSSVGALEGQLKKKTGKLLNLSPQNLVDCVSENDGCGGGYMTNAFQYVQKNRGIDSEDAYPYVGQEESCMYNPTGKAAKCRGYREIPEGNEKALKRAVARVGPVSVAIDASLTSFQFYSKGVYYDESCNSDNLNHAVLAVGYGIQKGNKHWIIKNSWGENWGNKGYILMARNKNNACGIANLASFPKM
Protocol: as §1, §2

[13] = test system: human NP cells; test: Stability of Link N in the presence of cells (monolayer, mass spectrometry); format: in vitro ADME; details: Link N 1 μg/mL, 37° C.
Protocol: (§3) To evaluate the stability of Link N, freshly isolated human cells from NP and AF regions were plated in 6 well culture plates at a density of 250,000 cells per well. Cells were cultured at 37° C., 5% CO2 in 3 mL DMEM, containing 4.5 g/L glucose and supplemented with 10% FCS, 25 mmol/L HEPES, 50 μg/mL gentamicin sulphate, 0.25 μg/mL fungizone, 50 μg/mL L-ascorbate, and 2 mmol/L GlutaMAX. The wells were left for 2 days before exposure to Link-N (1 μg/mL). 200 μL medium was collected at fixed time points (0 h, 6 h, 12 h, 24 h, 36 h, and 48 h). Stability of the peptide was also studied at the same time points in the absence of cells.
25 μL medium samples, collected from the monolayer cultures described above or peptide digests were purified on C18 spin columns according to standard protocols (Harvard Apparatus, Holliston, Mass.). Eluted peptides were reconstituted in 20 μL, 2% acetonitrile and 0.2% formic acid (FA). Samples were injected and quantified using a triple quadropole mass spectrometer TSQ Vantage™ (Thermo Scientific, Waltham, Mass.) equipped with an easy nano-LC system (Thermo Scientific). The mass spectrometer was operated in SRM mode, with both Q1 and Q3 settings at unit resolution (FWHM 0.7 Da). A spray voltage of +1,700 V was used with a heated ion transfer setting of 270° C. for desolvation. Data were acquired using the Xcalibur software (version 2.1). […]

[14] = test system: human AF cells; test: Stability and processing of Link N in the presence of cells (monolayer, mass spectrometry); format: in vitro ADME; details: for peak area intensity of intact Link N in the presence of AF cells: human AF cells in monolayer
Protocol: as §3
as §2, with “min. […]” for “min.”

[15] = test system: human inner annulus fibrosus (iAF) cells; test: Proteoglycan synthesis by 35SO4 incorporation, cells in alginate beads; format: cell-based; details: human AF (iAF) cells, 48 h; for proteoglycan synthesis (35SO4 incorporation): 16-mer peptides 1 μg/mL, 8-mer peptides 0.5 μg/mL, vs medium alone
Protocol: (§4) Human thoracolumbar spines were retrieved through the Transplant Quebec organ donation program. Discs were obtained from 7 donors, 1 male and 6 female, with a mean age of 29.6 years and an age range of 16 to 47 years (Table 1). Donors having had recent chemotherapy, radiation therapies to the spine, or significant long-standing paralysis were excluded from the study. Spine retrieval was performed within 8 h of death. Discs with calcification and loss of disc height were not included in the study. All procedures were approved by the institutional review board of the Montreal General Hospital.
(§5) Human and bovine IVDs were separated from the adjoining vertebral body and divided into NP and AF for bovine IVDs and NP and inner annulus fibrosus (iAF) for human IVDs. Tissue from the human outer annulus fibrosus (oAF) was not used for cell isolation in this study. Cells were enzymatically isolated from each region as previously described (63). Briefly, NP and AF tissues were dissected into approximately 2-mm thick pieces, washed twice in PBS containing 50 μg/mL gentamicin, […] and 0.25 μg/mL fungizone, then digested with 0.2% pronase for 1 h, followed by collagenase type IA at 0.01% for NP and 0.04% for AF tissue for 4 h in serum free DMEM.
(§6) To compare the metabolic response to the various Link N peptides, freshly isolated human and bovine cells from NP and AF regions were embedded in 1.2% alginate beads, as previously described (65). Cells in alginate beads were cultured at 37° C., 5% CO2 in DMEM, containing 4.5 g/L glucose and supplemented with 10% FCS, 25 mmol/L HEPES, 50 μg/mL gentamicin sulphate, 0.25 μg/mL fungizone, 50 μg/mL L-ascorbate, and 2 mmol/L GlutaMAX. The beads were stabilized for 7 days and cell viability was assessed by Live/Dead® assay prior to further treatment. 5 beads per well were then cultured in 48 well plates in the presence of equimolar concentrations of either Link N (1 μg/mL), R-Link N (1 μg/mL), S-Link N (1 μg/mL), Link N 1-8 (0.5 μg/mL) or Link N 9-16 (0.5 μg/mL) in 0.5 mL DMEM. 25 μCi/mL ^35SO4 was added to the medium to allow assessment of proteoglycan synthesis (66). In addition, beads were exposed for 48 h to IL-1β (10 ng/mL) alone, or to a combination of peptides and IL-1β (51). At the end of the culture period, medium was collected and dialyzed exhaustively against miliQ water at […] (Spectra/Por® 3), followed by cold chase with 1M MgSO4 for 2 h to remove any remaining unincorporated ^35SO4. The ^35SO4 incorporation was measured using a beta scintillation counter (Beckman Coulter LS6500, Beckman Coulter, Mississauga, Canada).

[16] = test system: human nucleus pulposus (NP) cells; test: as above; format: cell-based; details: 48 h; for proteoglycan synthesis (35SO4 incorporation): 16-mer peptides 1 μg/mL, 8-mer peptides 0.5 μg/mL, vs medium alone
Protocol: as §4, §5, §6

[17] = test system: bovine nucleus pulposus (NP) cells; test: as above; format: cell-based; details: 48 h, 16-mer peptides 1 μg/mL, 8-mer peptides 0.5 μg/mL, vs medium alone
Protocol: as §5, §6

[18] = test system: bovine annulus fibrosus (AF) cells; test: as above; format: cell-based; details: 48 h, 16-mer peptides 1 μg/mL, 8-mer peptides 0.5 μg/mL, vs medium alone
Protocol: as §5, §6

[19] = test system: cells from degenerated disc tissue; details: Wang et al.; 100 ng/mL; monolayer-expanded cells in 3D culture; cited from earlier work
[20] = IL-1β 10 ng/mL, vs IL-1-containing medium

T7 sequence (Q92743 23-480): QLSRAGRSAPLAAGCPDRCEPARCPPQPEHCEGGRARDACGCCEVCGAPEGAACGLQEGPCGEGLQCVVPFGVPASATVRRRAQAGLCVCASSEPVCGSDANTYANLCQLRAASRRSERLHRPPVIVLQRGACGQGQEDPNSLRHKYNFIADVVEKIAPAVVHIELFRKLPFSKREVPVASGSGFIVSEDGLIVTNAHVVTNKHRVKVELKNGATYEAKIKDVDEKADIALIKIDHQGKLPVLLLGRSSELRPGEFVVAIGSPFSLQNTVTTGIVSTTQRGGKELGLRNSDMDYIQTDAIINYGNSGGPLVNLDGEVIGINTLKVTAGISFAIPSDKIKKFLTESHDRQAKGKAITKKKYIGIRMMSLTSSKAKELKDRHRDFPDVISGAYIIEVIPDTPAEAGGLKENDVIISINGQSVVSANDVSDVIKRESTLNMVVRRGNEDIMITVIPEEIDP
T4 sequence (O75173 213-837): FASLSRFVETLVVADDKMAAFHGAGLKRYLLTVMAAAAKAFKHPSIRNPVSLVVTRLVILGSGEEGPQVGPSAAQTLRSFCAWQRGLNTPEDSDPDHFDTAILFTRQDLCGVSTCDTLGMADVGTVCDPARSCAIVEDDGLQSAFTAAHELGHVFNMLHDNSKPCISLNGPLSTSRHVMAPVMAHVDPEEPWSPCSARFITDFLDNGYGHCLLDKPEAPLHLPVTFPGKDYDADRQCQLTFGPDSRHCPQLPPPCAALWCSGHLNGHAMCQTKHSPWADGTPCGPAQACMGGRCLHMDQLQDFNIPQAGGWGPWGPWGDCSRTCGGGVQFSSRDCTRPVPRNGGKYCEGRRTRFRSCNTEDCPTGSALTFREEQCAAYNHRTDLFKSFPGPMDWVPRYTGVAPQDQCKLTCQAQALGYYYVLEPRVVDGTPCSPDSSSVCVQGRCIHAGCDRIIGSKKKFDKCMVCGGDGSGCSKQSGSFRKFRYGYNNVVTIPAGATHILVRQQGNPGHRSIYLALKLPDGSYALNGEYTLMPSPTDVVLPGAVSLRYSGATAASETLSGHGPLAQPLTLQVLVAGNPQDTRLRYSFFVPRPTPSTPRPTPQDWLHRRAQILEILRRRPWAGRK
T6 sequence (P08254 100-477): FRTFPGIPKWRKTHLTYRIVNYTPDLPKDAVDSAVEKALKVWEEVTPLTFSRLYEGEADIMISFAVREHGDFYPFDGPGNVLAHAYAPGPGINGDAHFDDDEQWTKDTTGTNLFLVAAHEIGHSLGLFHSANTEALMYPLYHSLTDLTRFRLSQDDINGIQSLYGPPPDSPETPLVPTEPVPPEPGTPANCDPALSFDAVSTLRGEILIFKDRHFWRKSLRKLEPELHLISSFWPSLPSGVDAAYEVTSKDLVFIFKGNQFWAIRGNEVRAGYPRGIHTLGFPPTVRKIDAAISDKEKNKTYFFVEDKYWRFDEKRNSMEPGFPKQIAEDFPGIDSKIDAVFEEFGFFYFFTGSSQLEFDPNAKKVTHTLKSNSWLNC
T2 sequence (Q9UNA0 262-930): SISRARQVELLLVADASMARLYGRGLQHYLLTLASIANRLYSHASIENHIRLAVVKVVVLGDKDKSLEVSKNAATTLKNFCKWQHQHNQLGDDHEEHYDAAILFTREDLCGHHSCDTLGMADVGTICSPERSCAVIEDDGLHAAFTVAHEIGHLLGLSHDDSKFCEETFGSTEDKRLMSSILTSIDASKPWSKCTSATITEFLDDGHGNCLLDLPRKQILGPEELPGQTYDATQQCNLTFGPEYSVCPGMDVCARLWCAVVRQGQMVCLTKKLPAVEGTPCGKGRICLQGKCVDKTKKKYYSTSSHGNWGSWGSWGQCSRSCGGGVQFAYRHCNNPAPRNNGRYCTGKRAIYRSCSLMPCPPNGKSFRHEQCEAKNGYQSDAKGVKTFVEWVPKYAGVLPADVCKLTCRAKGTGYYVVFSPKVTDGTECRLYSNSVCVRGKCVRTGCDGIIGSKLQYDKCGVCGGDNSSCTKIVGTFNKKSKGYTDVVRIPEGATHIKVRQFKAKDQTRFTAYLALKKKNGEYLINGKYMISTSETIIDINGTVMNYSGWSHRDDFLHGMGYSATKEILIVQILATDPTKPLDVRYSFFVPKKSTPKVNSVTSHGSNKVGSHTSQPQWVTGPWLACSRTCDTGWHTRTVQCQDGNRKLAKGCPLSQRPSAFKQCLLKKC
Sequence of cathepsin L (P07711 114-333): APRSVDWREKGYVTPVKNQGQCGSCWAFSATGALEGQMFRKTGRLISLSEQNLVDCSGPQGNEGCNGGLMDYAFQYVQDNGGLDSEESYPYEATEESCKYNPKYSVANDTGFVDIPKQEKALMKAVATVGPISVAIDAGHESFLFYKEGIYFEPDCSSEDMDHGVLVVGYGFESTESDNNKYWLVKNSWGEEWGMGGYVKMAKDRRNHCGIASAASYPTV
T3 sequence (P39900 106-470): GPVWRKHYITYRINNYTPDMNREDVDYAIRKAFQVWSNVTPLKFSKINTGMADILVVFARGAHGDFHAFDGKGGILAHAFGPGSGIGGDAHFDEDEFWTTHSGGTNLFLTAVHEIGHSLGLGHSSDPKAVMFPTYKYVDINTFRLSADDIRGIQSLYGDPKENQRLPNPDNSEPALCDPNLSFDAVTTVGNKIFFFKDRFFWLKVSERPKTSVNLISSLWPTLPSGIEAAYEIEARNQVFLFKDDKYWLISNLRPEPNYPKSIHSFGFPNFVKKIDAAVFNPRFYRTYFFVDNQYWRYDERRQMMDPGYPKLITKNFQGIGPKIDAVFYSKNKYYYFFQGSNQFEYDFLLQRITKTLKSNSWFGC
T1 sequence (P09237 95-267): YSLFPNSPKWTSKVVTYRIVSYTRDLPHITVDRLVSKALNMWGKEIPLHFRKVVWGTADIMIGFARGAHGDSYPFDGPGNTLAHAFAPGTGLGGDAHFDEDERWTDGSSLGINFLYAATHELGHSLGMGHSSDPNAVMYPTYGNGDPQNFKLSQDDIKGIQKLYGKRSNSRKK

For “DHHSDNYTVDHDRVIH [BLN, DHHSDNYTVDHDRVIH]”, the viability at 432 h, 1 µg/mL [1] was > 98%.

For “DHLSDNYTLDHDRAIH [Link N, DHLSDNYTLDHDRAIH]”, the “retention of Link N in the human disc” value [2] is given as “only lost slowly through the endplate and not AF”, the “peak area intensity of the 1922 Da Link 1-16 peptide” value [3] is given as “un-affected” and the “peak area intensity of the 1922 Da Link 1-16 peptide” value [4] is given as “un-affected”. For the same substance, the “peak area intensity of the 1922 Da Link 1-16 peptide” value [5] was “un-affected”, the “peak area intensity of the 1922 Da Link 1-16 peptide” value [6] was “un-affected” and the “peak area intensity of the 1922 Da Link 1-16 peptide” value [7] was “un-affected”. The “peak area intensity of the 1922 Da Link 1-16 peptide” value [8] was “un-affected”, the “peak area intensity of the 1922 Da Link 1-16 peptide” value [9] was “un-affected” and the “peak area intensity of the 1922 Da Link 1-16 peptide” value [10] was “un-affected”. For the same substance, the “peak area intensity of the 1922 Da Link 1-16 peptide” value [11] was “un-affected”, the “peak area intensity of the 1922 Da Link 1-16 peptide” value ([12]; 2 and 24 hours) was “hardly detectable” and the “peak area intensity of the 1922 Da Link 1-16 peptide” value ([12]; 30 minutes) was “significantly diminished”. The “cleavage of Link N by cathepsin K (MRM of Link 1-8 and Link 9-16)” value ([12]; 2 hours) was “single cleavage between amino acids 8 and 9”, the viability at 432 h, 1 µg/mL [1] was > 98% and the “time the peptide was stable in the presence of NP cells” value [13] was “at least 48 h”. The “processed product of Link N identified by tandem mass spectrometry” value ([14]; AF cell culture medium, 964.4 Da peptide) was “a peptide spanning residues 1 to 8 was generated”, the “peak area intensity of intact Link N in the presence of AF cells” value ([14]; after 48 h) was “only trace amounts were present” and the “peak area intensity of intact Link N in the presence of AF cells” value ([14]; by 6 h) was “decrease”.

For “DLNRAHLHIDYHTDSD [S-Link N, scrambled Link N]”, the “proteoglycan synthesis (35SO4 incorporation)” value [15] was “no response”, the “proteoglycan synthesis (35SO4 incorporation)” value [16] was “no response” and the “proteoglycan synthesis (35SO4 incorporation)” value [17] was “no effect was observed”. For the same substance, the “proteoglycan synthesis (35SO4 incorporation)” value [18] was “no effect was observed”.

With “HIARDHDLTYNDSLHD [R-Link N, reverse Link N]” the “proteoglycan synthesis (35SO4 incorporation)” value [15] was “no response”, the “proteoglycan synthesis (35SO4 incorporation)” value [16] was “no response” and the “proteoglycan synthesis (35SO4 incorporation)” value [17] was “no effect was observed”. For the same substance, the “proteoglycan synthesis (35SO4 incorporation)” value [18] was “no effect was observed”.

With “LDHDRAIH [Link N 9-16, second 8 peptide residues of Link N]” the “proteoglycan synthesis (35SO4 incorporation)” value [15] was “no response”, the “proteoglycan synthesis (35SO4 incorporation) in the presence of IL-1β” value [15, 20] was “no response” and the “proteoglycan synthesis (35SO4 incorporation)” value [16] was “no response”. For the same substance, the “proteoglycan synthesis (35SO4 incorporation) in the presence of IL-1β” value [16, 20] was “no response”, the “proteoglycan synthesis (35SO4 incorporation)” value [17] was “no effect was seen” and the “proteoglycan synthesis (35SO4 incorporation)” value [18] was “no effect was seen”.

For “residue 1-12 peptide: Link N-derived peptide spanning amino acid residues 1-12, tested by Wang et al. (DHLSDNYTLDHD; UniProt P10915 16-27, looked up, fragment)”, the “stimulatory effect (cell-associated sulphated GAG)” value [19] is given as “inactive”.
